Assay results taken from patent US6603023B2 (priority 1996, dated 2003).
Several values for one entry are separate records, joined by “and”; a condition that tells them apart may be missing. Equal entries are not always repeated. Entries after “also recorded” stand apart in the source; their conditions may differ. Where two headings read alike, the source gives them in different places. Marks after values point to notes of the source that are not given here.

System: human mammary carcinoma MX-1 xenograft
Parameters: Toxicity toward Nude Mice: key to the marks not given beside the values
Details: for Toxicity toward Nude Mice: based on body weight decrease or lethality; for Therapeutic Effect against MX-1 Xenograft: based on tumor volume reduction vs untreated control
Method: DMSO was used as a vehicle for epothilones. Each mouse received ≦40 μL DMSO in all experiments.
Athymic nude mice (nu/nu) were used for MX-1 and MCF-7/Adr human mammary carcinoma xenografts. Mice were obtained from Taconic Laboratory Animals and Service (Germantown, N.Y.: outbred, Swiss background).

[1] = 40 mg/kg i.p. d18-26, extended after d8-16, day 22
[2] = 40 mg/kg i.p. d18-26, extended after d8-16, day 24
[3] = 40 mg/kg i.p. d18-26, extended after d8-16, day 26
[4] = 40 mg/kg i.p. d18-26, extended after d8-16, day 28
[5] = dEpo B 15 mg/kg i.v. Q2Dx5 from day 9
[6] = dEpo B 15 mg/kg i.v. Q2Dx5 from day 9, day 13
[7] = dEpo B 15 mg/kg i.v. Q2Dx5 from day 9, day 15
[8] = dEpo B 15 mg/kg i.v. Q2Dx5 from day 9, day 17
[9] = dEpo B 15 mg/kg i.v. Q2Dx5 from day 9, day 19
[10] = i.p., Cremophor-EtOH, 15 mg/kg Q2D x 5 (dose of dEpoB)
[11] = i.p., DMSO, 35 mg/kg Q2D x 5 (dose of dEpoB)
[12] = i.v. infusion 6 hr, Cremophor-EtOH, 30 mg/kg Q2D x 5 (dose of dEpoB)
[13] = i.v. infusion 24 hr, Cremophor-EtOH, 60 mg/kg Q4D x 2 (dose of dEpoB)
[14] = i.v. injection, DMSO, 15 mg/kg Q2D x 5 (dose of dEpoB)
[15] = i.v. injection, DMSO, 24 mg/kg Q2D x 5 (dose of dEpoB)

C/C1=C/C[C@@H](/C(C)=C/c2csc(C)n2)OC(=O)C[C@H](O)C(C)(C)C(=O)[C@H](C)[C@@H](O)[C@@H](C)CCC1 [Desoxyepothilone B, desoxyepothilone B]
Tumor Disappearance (40 mg/kg i.p. d18-26, extended after d8-16, day 20): 2/10^b
Average Body Weight Change [1]: -2.4 g
Tumor Disappearance [1]: 2/10
Average Body Weight Change [2]: -2.4 g
Tumor Disappearance [2]: 3/10
Average Body Weight Change [3]: -1.4 g
Tumor Disappearance [3]: 5/10
Average Body Weight Change [4]: -1.2 g
Tumor Disappearance [4]: 5/10
lethality and body weight (15 and 25 mg/kg i.p. days 7-15): no lethality nor body weight reduction
therapeutic outcome (25-40 mg/kg, Q2Dx5, i.p.): marked tumor regression and cures
therapeutic outcome (6 hr i.v. infusion): full cure
Toxicity Death [5]: 4/6^b
Tumor Disapp. [5]: 0/6
Average Body Weight Change [6]: 0 g
Average Tumor Size (T/C) [6]: 0.47
Average Body Weight Change [7]: -0.6 g
Average Tumor Size (T/C) [7]: 0.30
Average Body Weight Change [8]: -1.1 g
Average Tumor Size (T/C) [8]: 0.10
Average Body Weight Change [9]: -2.6 g
Average Tumor Size (T/C) [9]: 0.04
tumor size treated/control (dEpoB 35 mg/kg i.p. Q2Dx5, day 19): 0.02
mice with tumor disappearing on day 28 (or day 31) (extended 40 mg/kg i.p. every other day from day 18, 5 more doses): 5 out of 10
Average Tumor Disappearance Duration (extended experiment, Desoxyepo B 40 mg/kg i.p., in 5/10 mice): 44 (5/10) Day
Toxicity toward Nude Mice [10]: +++++
Therapeutic Effect against MX-1 Xenograft [10]: +
Toxicity toward Nude Mice [11]: ++
Therapeutic Effect against MX-1 Xenograft [11]: +++++
Toxicity toward Nude Mice [12]: ++
Therapeutic Effect against MX-1 Xenograft [12]: +++++
Toxicity toward Nude Mice [13]: +++
Therapeutic Effect against MX-1 Xenograft [13]: +++++
Toxicity toward Nude Mice [14]: +++
Therapeutic Effect against MX-1 Xenograft [14]: ++
Toxicity toward Nude Mice [15]: +++
Therapeutic Effect against MX-1 Xenograft [15]: ++
# Died of toxicity (mouse, in vivo): 0/10
Average Body Weight (change), Day 14 (mouse, in vivo): -2.7 g
Average Body Weight (change), Day 16 (mouse, in vivo): -4.0 g
Average Body Weight (change), Day 18 (mouse, in vivo): -4.5 g
Average Body Weight (change), Day 20 (mouse, in vivo): -6.8 g
Average Body Weight Change, Day 20 (mouse, in vivo): -1.7 g
Average Body Weight Change, Day 22 (mouse, in vivo): -2.4 g
Average Body Weight Change, Day 24 (mouse, in vivo): -2.4 g
Average Body Weight Change, Day 26 (mouse, in vivo): -1.4 g
Average Body Weight Change, Day 28 (mouse, in vivo): -1.2 g
Average Tumor Size (T/C), Day 14 (mouse, in vivo): 0.19 T/C
Average Tumor Size (T/C), Day 16 (mouse, in vivo): 0.10 T/C
Average Tumor Size (T/C), Day 18 (mouse, in vivo): 0.03 T/C
Died (mouse, in vivo): 0/10
Lowest Average Tumor Size (T/C) (mouse, in vivo): 0 T/C
Therapeutic Effects dEpoB vs Taxol (mouse, in vivo): ≅
Tumor Disappearance (mouse, in vivo): 3/3 and 5/5
Tumor Disappearance, Day 20 (mouse, in vivo): 2.10^b
Tumor Disappearance, Day 22 (mouse, in vivo): 2/10
Tumor Disappearance, Day 24 (mouse, in vivo): 3/10
Tumor Disappearance, Day 26 (mouse, in vivo): 5/10
Tumor Disappearance, Day 28 (mouse, in vivo): 5/10
Therapeutic effect Rank Order (mouse, in vivo, ip): dEpoB > Camptothecin >; also recorded: dEpoB > Adriamycin > Taxol ®
Therapeutic effect Rank Order (mouse, in vivo, iv): Taxol ® ≈ dEpoB
Tumor Size, individual mice, Day 60 (surviving mice 4, 5, 9, 35 mg/kg on day 8-16, 40 mg/kg on day 18-26, then no treatment): 0 mm^3 (2×) and 4 mm^3
